Assay results from patent US4309559A, “Sulphonamides useful as pesticides” (FBC Limited, priority 1977, dated 1982).

Key:
Pythium ultimum [1] = experiment: Fungal growth on the surface of soil infected with damping-off disease organism; assay type: in vivo; conditions: 6 days, 25° C.
Pythium ultimum [2] = experiment: Cabbage seedling emergence in soil infected with Pythium ultimum; assay type: in vivo, Pythium ultimum (on cabbage, variety Flower of Spring); conditions: 6 days, 25° C.
Summary of the method: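 Potting compost infested with one-week maize meal/sand Pythium ultimum culture (3 kg per 12 l soil), drenched with compound in Tween 20/water at 1500, 500, 150 or 50 ppm; 15 cabbage seeds sown per carton, 25° C, four replicates. After six days, soil-surface fungal growth and seedling emergence scored 0-8.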

[3] = system: cabbage seeds, variety Flower of Spring; experiment: Phytotoxicity of chemical alone on cabbage seed germination (chemical only soil treatment); assay type: in vivo
Description: Fifteen cabbage seeds, variety Flower of Spring, were placed in a circular depression in the treated infected soil, recovered, and the whole sealed with a plastic cap. The cartons were then placed in a constant temperature room at 25° C.±1° C. Four replications per treatment were made, with one additional treatment where seeds were sown in soil which was chemically treated only, i.e. there was no infection. This latter treatment was included to measure the direct effect of the chemical on the germination of the seed. and are given in the following table. Any phytotoxicity induced by the chemical alone is deduced from the chemical only soil treatment.

[4] = system: vine downy mildew, Plasmopara viticola; experiment: Vine downy mildew control on vine plants (application to soil and leaves); assay type: in vivo; conditions: 2000 ppm, 12 days, controls less than 5%
Description: Aqueous acetone solutions of each of the compounds listed in the Table below, containing 2000 parts per million (ppm), together with 125 ppm of a suitable wetting agent, were applied to the soil surrounding the roots and leaves of vine plants having five fully expanded leaves.
The treated plants, together with controls treated with wetting agent alone, were inoculated 24 hours after the chemical application with an aqueous suspension of sporangia of the disease organism known as vine downy mildew, Plasmopara viticola.

[5] = 100 ppm, 0-8 scale (Examples 233, 234)
[6] = 300 ppm, 0-8 scale (Examples 233, 234, 268)

COC(C)(CN(c1c(C)cccc1Cl)S(C)(=O)=O)OC [Example 222, N-(2,2-dimethoxypropyl)-2'-chloro-6'-methyl-methanesulphonanilide]
Mycelial Control Score (Pythium ultimum [1]; [5]): 3 (45-54% inhibition) | Mycelial Control Score (Pythium ultimum [1]; [6]): 4 (55- 64% inhibition) | Germination Score (Pythium ultimum [2]; [5]): 1 (20-34% inhibition) | Germination Score (Pythium ultimum [2]; [6]): 1 (20-34% inhibition) | Phytotoxicity Score ([3]; 100 ppm): 0 | Phytotoxicity Score ([3]; 300 ppm): 0 | % Control Vine Downing Mildew [4]: 94%
